We go through 9 compounds from PubChem BioAssay (NCI).

Some test systems named below: 786-0 renal; ACHN renal; HCT-15 colon; HL-60(TB) leukemia; HT29 colon; KM12 colon; M14 melanoma; MALME-3M melanoma; MCF7 breast; MDA-N; MOLT-4 leukemia; NCI-H226 lung; NCI-H23 lung; OVCAR-4 ovarian; OVCAR-5 ovarian; SK-MEL-2 melanoma; SK-MEL-28 melanoma; SNB-19 CNS; TK-10 renal; U251 CNS.
What all share (assay): growth of human tumour cells (NCI), 48 h

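Exposure lasted 48 hours, with cells grown in 96-well plates and compounds tested at five concentrations. At the TGI there is no net growth.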 Some results are limits rather than exact numbers.

Turning to `COc1cc(OC)c2c(=O)c3cccc(C)c3n(C)c2c1`, the TGI in the assay on 786-0 renal, in the assay on ACHN renal, with HCT-15 colon, in the assay with HL-60(TB) leukemia, in the assay with HT29 colon and in the assay with KM12 colon was over 100 µM in each case. Besides, the TGI in the assay with M14 melanoma, with MALME-3M melanoma, in the assay with MCF7 breast, in the assay on MDA-N, in the assay on MOLT-4 leukemia and with NCI-H226 lung was over 100 µM in each case. The TGI with NCI-H23 lung, in the assay on OVCAR-4 ovarian, in the assay with OVCAR-5 ovarian, in the assay on SK-MEL-2 melanoma, in the assay on SK-MEL-28 melanoma and in the assay with SNB-19 CNS was over 100 µM each time. In addition, the TGI with TK-10 renal and in the assay with U251 CNS was over 100 µM throughout.
Regarding `O=[N+]([O-])c1cccc2nccc(NCCN3CCOCC3)c12`, the TGI with 786-0 renal was over 57.5 µM; with ACHN renal, over 59.4 µM; in the assay on HCT-15 colon, over 46.9 µM; in the assay on HL-60(TB) leukemia it was over 34.6 µM; in the assay with HT29 colon, 44.4 µM; in the assay with KM12 colon, 40 µM. Moreover, the TGI with M14 melanoma is 34 µM; in the assay with MALME-3M melanoma, 18.7 µM; in the assay on MCF7 breast, 25.5 µM; with MDA-N it was 61.4 µM; with MOLT-4 leukemia, over 56.5 µM; with NCI-H226 lung, 17 µM. The TGI in the assay with NCI-H23 lung was over 65.1 µM; with OVCAR-4 ovarian, 25.6 µM; in the assay with OVCAR-5 ovarian, 38.4 µM; in the assay on SK-MEL-2 melanoma, 42.6 µM; in the assay with SK-MEL-28 melanoma, 46.1 µM; in the assay on SNB-19 CNS, over 100 µM. The figures for the TGI in the assay with TK-10 renal and in the assay on U251 CNS were over 48.4 µM and over 53.9 µM, respectively.
For `CC(C)OP(=O)(OC(C)C)C(C)(C)O`, the TGI in the assay on 786-0 renal, with ACHN renal, in the assay with HCT-15 colon, in the assay on HL-60(TB) leukemia, in the assay on HT29 colon and in the assay on KM12 colon was over 100 µM in each case. The TGI in the assay with M14 melanoma, with MALME-3M melanoma, in the assay with MCF7 breast, in the assay on MDA-N, in the assay with MOLT-4 leukemia and with NCI-H226 lung was over 100 µM in each case. The TGI in the assay on NCI-H23 lung, with OVCAR-4 ovarian, with OVCAR-5 ovarian, with SK-MEL-2 melanoma, in the assay with SK-MEL-28 melanoma and in the assay on SNB-19 CNS was over 100 µM each time. Also, the TGI with TK-10 renal and in the assay on U251 CNS was over 100 µM in each case.
Take `O=CNc1ccccc1OCCOc1ccccc1NC=O`: the TGI in the assay on 786-0 renal, in the assay with ACHN renal, with HCT-15 colon, with HL-60(TB) leukemia, in the assay with HT29 colon and with KM12 colon was over 100 µM in each case. Moreover, the TGI with M14 melanoma, in the assay on MALME-3M melanoma, with MCF7 breast, with MDA-N, in the assay with MOLT-4 leukemia and with NCI-H226 lung was over 100 µM each time. Besides, the TGI with NCI-H23 lung, in the assay with OVCAR-4 ovarian, in the assay on OVCAR-5 ovarian, in the assay with SK-MEL-2 melanoma, in the assay on SK-MEL-28 melanoma and in the assay with SNB-19 CNS was over 100 µM in each case. For the same compound, the TGI in the assay on TK-10 renal and in the assay on U251 CNS was over 100 µM in each case.
Take `CC(C)(C)OC(=O)N1CCCC1C(=O)NC(c1ccccc1)c1ccccc1` (stereo not given): the TGI with 786-0 renal, in the assay on ACHN renal, in the assay on HCT-15 colon, in the assay on HL-60(TB) leukemia, in the assay on HT29 colon and with KM12 colon was over 100 µM in each case. Further, the TGI in the assay with M14 melanoma, with MALME-3M melanoma, in the assay with MCF7 breast, with MDA-N, in the assay with MOLT-4 leukemia and in the assay with NCI-H226 lung was over 100 µM each time. In addition, the TGI with NCI-H23 lung, with OVCAR-4 ovarian, in the assay with OVCAR-5 ovarian, in the assay on SK-MEL-2 melanoma, in the assay with SK-MEL-28 melanoma and in the assay with SNB-19 CNS was over 100 µM each time. In addition, the TGI in the assay on TK-10 renal and in the assay with U251 CNS was over 100 µM in each case.
For the compound `O=C(NCCNCCNC(=O)c1cc(-c2ccccc2)nc2ccccc12)c1cc(-c2ccccc2)nc2ccccc12`, the TGI worked out at 3.39 µM in the assay with 786-0 renal; 4.85 µM with ACHN renal; 8.19 µM in the assay with HCT-15 colon; 5 µM with HL-60(TB) leukemia; 3.24 µM in the assay on HT29 colon; 4.03 µM with KM12 colon. Besides, the TGI worked out at 3.12 µM in the assay with M14 melanoma; 3.33 µM in the assay with MALME-3M melanoma; 3.96 µM in the assay with MCF7 breast; 3.42 µM in the assay with MDA-N; 5.52 µM with MOLT-4 leukemia; 9.16 µM with NCI-H226 lung. Moreover, the TGI came out at 22.3 µM in the assay on NCI-H23 lung; 5.98 µM in the assay with OVCAR-4 ovarian; 4.91 µM in the assay with OVCAR-5 ovarian; 3.13 µM with SK-MEL-2 melanoma; 3.25 µM in the assay on SK-MEL-28 melanoma; 24.3 µM in the assay with SNB-19 CNS. Moreover, the TGI in the assay with TK-10 renal amounted to 7.96 µM; with U251 CNS, 4.07 µM.
`O=C(Nc1ccccc1)OCCN=C1c2ccccc2CCc2ccccc21`: the TGI was over 100 µM in the assay on 786-0 renal; 70.1 µM with ACHN renal; 48.2 µM with HCT-15 colon; 42.2 µM in the assay on HL-60(TB) leukemia; 37 µM with HT29 colon; 33.1 µM with KM12 colon. Besides, the TGI in the assay with M14 melanoma was 45.1 µM; in the assay on MALME-3M melanoma, 57.9 µM; in the assay on MCF7 breast, 57.8 µM; in the assay with MDA-N it was 37.2 µM; in the assay with MOLT-4 leukemia, 31.1 µM; in the assay on NCI-H226 lung it was 55 µM. The TGI with NCI-H23 lung is over 100 µM; with OVCAR-4 ovarian, over 100 µM; with OVCAR-5 ovarian it was 63.5 µM; in the assay with SK-MEL-2 melanoma, 30.3 µM; with SK-MEL-28 melanoma, 28.7 µM; in the assay on SNB-19 CNS, 43.7 µM. Further, the TGI with TK-10 renal is over 100 µM; in the assay with U251 CNS, 32.1 µM.
Consider `Cc1[nH]c(-c2ccccc2)c2nc(N(C)C)oc(=O)c12`, for which the TGI in the assay on 786-0 renal, with ACHN renal, in the assay on HCT-15 colon, in the assay on HL-60(TB) leukemia, with HT29 colon and in the assay on KM12 colon was over 100 µM throughout. Moreover, the TGI in the assay on M14 melanoma, with MALME-3M melanoma, with MCF7 breast, in the assay on MDA-N, in the assay with MOLT-4 leukemia and in the assay on NCI-H226 lung was over 100 µM in each case. Moreover, the TGI with NCI-H23 lung, in the assay on OVCAR-4 ovarian, in the assay on OVCAR-5 ovarian, with SK-MEL-2 melanoma, with SK-MEL-28 melanoma and in the assay on SNB-19 CNS was over 100 µM throughout. Moreover, the TGI with TK-10 renal and in the assay on U251 CNS was over 100 µM in each case.
For `CN=c1sc2nc(C#N)c(C#N)nc2n1C`, the TGI was over 60 µM in the assay with 786-0 renal; 60.2 µM in the assay with ACHN renal; 41.2 µM in the assay with HCT-15 colon; over 40.4 µM in the assay on HL-60(TB) leukemia; 26 µM in the assay on HT29 colon; over 67.8 µM with KM12 colon. For the same compound, the TGI in the assay on M14 melanoma was over 58.9 µM; in the assay with MALME-3M melanoma, 36.4 µM; in the assay with MCF7 breast, 38.1 µM; in the assay with MDA-N, over 58.3 µM; in the assay with MOLT-4 leukemia, over 100 µM; in the assay on NCI-H226 lung it was 38.8 µM. For the same compound, the TGI in the assay with NCI-H23 lung was 37.9 µM; in the assay on OVCAR-4 ovarian, 49.1 µM; with OVCAR-5 ovarian it was 51.6 µM; with SK-MEL-2 melanoma, 40.7 µM; in the assay on SK-MEL-28 melanoma, over 85 µM; with SNB-19 CNS, over 62.6 µM. The TGI is over 63.4 µM in the assay with TK-10 renal and 44.9 µM in the assay with U251 CNS.
